The text below walks through data of PMC8604796 (Computers in Biology and Medicine, 2021).

Like-named read-outs stand apart in the source and are kept apart here. Numbered stars: 1 amine (or outer) side, 2 acyl side, 3 side chain; on linkers, the order of the positions; unused ones are H or OH. Bridge positions count the residues as written; N and C are the ends. Square brackets hold non-standard residues; d marks the D form. Peptide text beside a SMILES is read from it. * marks the point of attachment. pTerphenylCO(4''-OnC5H11) = CCCCCOc1ccc(-c2ccc(-c3ccc(C(=O)*)cc3)cc2)cc1; Orn(4R-OH,5R-OH) = O=C([C@H](C[C@@H](O)[C@@H](O)N[*:3])N[*:1])[*:2]; hTyr(3S-OH,4S-OH) = N[C@H](C(=O)O)[C@H](O)[C@@H](O)c1ccc(O)cc1; Pro(3S-OH,4S-Me) = C[C@H]1CN[C@H](C(=O)O)[C@H]1O; Hyp = O=C(O)[C@@H]1C[C@@H](O)CN1

One test concerns the target SARS-CoV-2 PLpro (Severe acute respiratory syndrome coronavirus 2, UniProt P0DTD1). The experiment in a line: biochemical.
Another test deals with SARS-CoV-2 virus. Conditions: read-out: IC50, in-vitro antiviral activity against the SARS-CoV-2 virus; cited from earlier work.

As to `CCCCCOc1ccc(-c2ccc(-c3ccc(C(=O)N[C@H]4C[C@@H](O)[C@@H](O)NC(=O)[C@@H]5[C@@H](O)[C@@H](C)CN5C(=O)[C@H]([C@@H](C)O)NC(=O)[C@H]([C@H](O)[C@@H](O)c5ccc(O)cc5)NC(=O)[C@@H]5C[C@@H](O)CN5C(=O)[C@H]([C@@H](C)O)NC4=O)cc3)cc2)cc1` [Anidulafungin] ({pTerphenylCO(4''-OnC5H11)}-[Orn(4R-OH,5R-OH)]T[Hyp][hTyr(3S-OH,4S-OH)]T[Pro(3S-OH,4S-Me)]; lactam 1-C), the “inhibitory activity against PLpro (in words)” value against SARS-CoV-2 PLpro (Ubiquitin-Rhodamine 110 Gly fluorescence intensity assay) is “low inhibitory activity”. In the test with SARS-CoV-2 virus, the IC50 – broadly, the concentration that gives 50% inhibition – was 4.64 µM.

As to `Cc1cc2nc3c(=O)[nH]c(=O)nc-3n(C[C@H](O)[C@H](O)[C@H](O)COP(=O)(O)OP(=O)(O)OC[C@H]3O[C@@H](n4cnc5c(N)ncnc54)[C@H](O)[C@@H]3O)c2cc1C` [FAD disodium], the half-inhibitory concentration (IC50) on SARS-CoV-2 PLpro (read-out: IC50 against SARS-CoV-2 PLpro) stood at 12.4 µM. The compound `CC(C)(C)[C@@H]1NC(=O)O[C@@H]2CCC[C@H]2OC/C=C/C(F)(F)c2nc3ccccc3nc2O[C@@H]2C[C@@H](C(=O)N[C@]3(C(=O)NS(=O)(=O)C4(C)CC4)C[C@H]3C(F)F)N(C2)C1=O` [Glecaprevir] gave an IC50 at SARS-CoV-2 PLpro of 36.8 µM. Same read-out and setting: the same measure for `CO[C@H]1/C=C/O[C@@]2(C)Oc3c(C)c(O)c4c(O)c(c(/C=N/N5CCN(C6CCCC6)CC5)c(O)c4c3C2=O)NC(=O)/C(C)=C\C=C\[C@H](C)[C@H](O)[C@@H](C)[C@@H](O)[C@@H](C)[C@H](OC(C)=O)[C@@H]1C` [Rifapentine]: 15.2 µM.
